Results as given in patent publication US8609870B2, “Treating various disorders using TrkB agonists” (Emory University, priority 2008, dated 2013).

Key:
mice = assay: Forced swim test; assay type: in vivo, mouse
Protocol: To explore whether an identified active compound has an antidepressant effect like BDNF, a forced swim test is conducted. Adult male mice (2-3 months old) are randomly submitted, without a pre-swim, to a forced swim test of 6 minutes with immobility recorded in the last 4 minutes. The mice are injected intraperitoneally for 5 days with saline, imipramine (20 mg/kg), amitryptyline (15 mg/kg), or an identified active compound (5 mg/kg). The mice are allowed to adapt to the test room for 2 days, and the mice are placed in a clear glass cylinder with a diameter of 16 cm, half-filled with clear water at 24° C.
To investigate whether deoxygedunin mimicked BDNF in suppressing depression-like symptoms, a forced swim test after subchronic treatment of the mice for 5 days with various drugs was conducted. […] To assess whether the behavior responses by 7,8-DHF and deoxygedunin were mediated by TrkB receptor, TrkB F616A knockin mice were used. The transgenic mice were subjected to saline or 1NMPP1 treatment, respectively.

TrkB F616A knockin mice = assay: KA-provoked apoptosis (caspase-3) in TrkB F616A knockin mice; assay type: in vivo, mouse
Protocol: To determine if 1NMPP1 makes neurons treated with an identified active compound vulnerable to KA-provoked neuronal cell death, TrkF616A knockin mice are fed with 1NMPP1 (25 mM) in drinking water one day prior to pharmacological reagent treatment. The next day, the mice are intraperitoneally injected with KA (25 mg/kg), or an identified active compound (5 mg/kg) 4 hours prior to KA injection. The control mice are injected with either KA or an identified active compound alone, or the mice are administered an identified active compound 4 hours before KA. After 4 days, the mice are sacrificed and the brains are homogenized and ultracentrifuged. The supernatant then is employed for SDS-PAGE and immunoblotting analysis.
(§1) […] inversely correlated with TrkB activation by deoxygedunin (FIG. 20, top and middle panels).

TrkB F616A = target: T1, TrkB F616A (Mus musculus, UniProt P15209, F616A); assay: TrkB phosphorylation in cortical neurons from TrkB F616A knockin mice; assay type: cell-based; conditions: inhibitor pretreatment
T1 construct: cortical neurons from TrkB F616A knockin mice; endogenous in cells; host or cells: primary cortical neurons from TrkB F616A knock-in mice
Protocol: (§2) To explore whether the neuroprotective action of an identified active compound is dependent on TrkB activation in vivo, TrkB F616A knockin mice are used. […] To further assess whether an identified active compound can mimic BDNF, cortical neurons are prepared from TrkB F616A knockin mice. The cortical neurons are pretreated for 30 minutes with either K252a Trk tyrosine kinase inhibitor (100 nM) or 1NMPP1 inhibitor (100 nM) followed by 0.5 μM identified active compound for 30 minutes.
as §1

Akt and Erk1/2 = Akt and Erk1/2 activation in cortical neurons from TrkB F616A knockin mice; assay type: cell-based, mouse
Protocol: as §2, §1

TrkA = TrkA (Mus musculus, UniProt Q3UFB7); assay: TrkA activation in cortical neurons from knockout mouse pups; assay type: cell-based; parameters: endogenous in cells; host or cells: primary cortical neurons from mouse pups; conditions: cortical neurons (pups of TrkB +/− mice)
caspase-3 = assay: Caspase-3 activation in cortical neurons from knockout mouse pups; assay type: cell-based
Protocol: (§3) To determine whether an identified active compound selectively activates TrkB receptor and prevents neuronal cell death, cortical neurons are prepared from homozygous pups of TrkB +/− mice, which are mated to the same genotype. The activation of TrkB and down stream indicators of TrkB activation, such as Capase-3, are monitored. To further assess whether an identified active compound blocks neuronal apoptosis in a TrkB dependent manner, cortical neurons are prepared from homozygous pups of […], which are mated to the same genotype. Again, the activation of TrkB and down stream indicators of TrkB activation, such as Capase-3, are monitored.
(§4) Additionally, the spontaneous caspase-3 activation in […] was suppressed by deoxygedunin.

TrkB [1] = assay: TrkB activation in cortical neurons from knockout mouse pups; assay type: cell-based; conditions: wild-type cortical neurons (pups of TrkB +/− mice)
Protocol: as §3, §4

Erk1/2 and Akt = Erk1/2 and Akt activation in hippocampal neurons (Western blot); assay type: cell-based; conditions: K252a pretreatment of hippocampal neurons
Protocol: BDNF binding to TrkB induces its autophosphorylation and, subsequently, activation of downstream kinase pathways including MAPK and PI3/Akt. To explore whether an identified active compound triggers TrkB activation, immunofluorescent staining on hippocampal neurons with anti-phospho TrkB antibody is conducted. To examine whether an identified active compound stimulates TrkB-mediated downstream signaling cascades, Western analysis is performed and the activation of Akt and Erk also is monitored. To test whether the stimulatory effect of an identified active compound is mediated through TrkB, cells are either untreated or treated with K252a, a selective inhibitor of the tyrosine kinase activity of the Trk family of neutrophin receptors. Cells treated with K252a block TrkB tyrosine phosphorylation in cells exposed to an identified active compound. To probe the time course of TrkB activation triggered by an identified active compound, hippocampal neurons are treated with an identified active compound at 500 nM and phosphorylation of Erk and Akt is determined over time by Western analysis. Whether stimulation of Erk and Akt by an identified active compound occurs in a dose dependent manner also is determined.
Both Akt and Erk1/2 were robustly activated by these molecules as well). […] The minimal required drug concentration was about 100-250 nM (see FIG. 7, right panels). […] To assess whether deoxygedunin provokes TrkB activation in the brain, mice (i.p.) were injected with a dose of 5 mg/kg for various time points. […] To establish that deoxygedunin is orally bioactive in provoking TrkB activation, two to three month old C57BL/6J mice were orally injected with various doses of 7,8-dihydroxyflavone or deoxygedunin then sacrificed 2 to 4 hours after administration. Brain lysates were prepared and analyzed by immunoblotting (see FIG. 10).

TrkB [2] = assay: TrkB phosphorylation in hippocampal neurons (immunofluorescent staining, immunoblotting); assay type: cell-based; conditions: K252a pretreatment of hippocampal neurons
Protocol: Unless specifically described, primary hippocampal neurons are seeded on poly-L lysine coated coverslips in a 12-well plate. After 7 days in vitro, the neurons are treated with 100 ng/ml BDNF or variety of flavone compounds (1 μM) for 30 minutes, and then are washed with PBS. Cells are fixed with 3% formaldehyde in PBS at room temperature for 10 minutes. The cells then are permeabilized and blocked by 0.4% Triton X-100 and 2% FBS in PBS at room temperature for 15 minutes, are washed with PBS three times, and are treated with anti-MAP2 (1:200) and anti-phospho-TrkB antibodies (1:500). After staining with FITC- or Rhodamine-conjugated secondary antibody, the coverslips are mounted on slides. Fluorescent images are taken by a fluorescence microscope.
BDNF binding to TrkB induces its autophosphorylation and, subsequently, activation of downstream kinase pathways including MAPK and PI3/Akt. […] To examine whether an identified active compound stimulates TrkB-mediated downstream signaling cascades, Western analysis is performed and the activation of Akt and Erk also is monitored. […] To probe the time course of TrkB activation triggered by an identified active compound, hippocampal neurons are treated with an identified active compound at 500 nM and phosphorylation of Erk and Akt is determined over time by Western analysis. […]

hippocampal neurons [3] = assay: Oxygen-glucose deprivation (OGD) apoptosis in hippocampal neurons; assay type: cell-based; conditions: apoptotic ratio compared to BDNF and DMSO
hippocampal neurons [4] = assay: Glutamate-triggered apoptosis in hippocampal neurons (MR(DEVD)2 / condensed nuclei); assay type: cell-based; conditions: 0.5 μM preincubated 30 min, then 50 μM glutamate 16 h
Protocol: To create and test reporter cell lines. In order to identify small molecules that mimic BDNF and activate TrkB, TrkB stably transfected murine cell lines are created. The T48 and T62 cell lines are created by transfecting basal forebrain SN56 cells, which express negligible TrkB, with a TrkB expression construct. To test expression of TrkB, the cells are treated with BDNF, which is predicted to result in strong phosphorylation of Trk-490 and Akt activation in comparison to the TrkA NTR stably expressing T17 cell line indicating expression of TrkB. To test resistance to apoptosis, the SN56 cells and the T48 cell line are either untreated or treated with BDNF, and then are subjected to an apoptotic assay. The apoptotic assay involves treating the cells with 0.75 μM Staurosporine for 9 hours, and 1 hour before completing the experiment, the cells are treated with 10 μM MR (DEVD)2. The cells then are fixed with 4% paraformaldehyde for 15 minutes, washed with phosphate buffered saline (PBS), and incubated with Hoechst 33342 for 10 minutes. Cover slides are washed with PBS, mounted, and then the cells are examined using a fluorescent microscope to see which cells turn red upon caspase cleavage.
To compare the apoptosis inhibitory activity of identified active compounds, the compounds are preincubated with SN56 and T48 cells, and subsequently are subjected to the fluorescent apoptotic assay as described above. To examine whether these identified active compounds promote neuronal survival, hippocampal neurons are prepared and the cultures are pretreated with the identified active compounds for 30 minutes, followed by treatment with 50 μM glutamate for 16 hours.
Using a cell-based screen as described above in Example 1 (based on the anti-apoptotic action of TrkB signaling) and the chemical library from the Spectrum Collection (described above), 66 positive hits were generated, four of which were gedunin derivatives. […] In this assay, neurons with both cleaved caspase (MR (DEVD)2 red cells) and condensed nuclei (DAPI staining) were counted as apoptotic cells. […]

T1 sequence (P15209 32-821 F616A): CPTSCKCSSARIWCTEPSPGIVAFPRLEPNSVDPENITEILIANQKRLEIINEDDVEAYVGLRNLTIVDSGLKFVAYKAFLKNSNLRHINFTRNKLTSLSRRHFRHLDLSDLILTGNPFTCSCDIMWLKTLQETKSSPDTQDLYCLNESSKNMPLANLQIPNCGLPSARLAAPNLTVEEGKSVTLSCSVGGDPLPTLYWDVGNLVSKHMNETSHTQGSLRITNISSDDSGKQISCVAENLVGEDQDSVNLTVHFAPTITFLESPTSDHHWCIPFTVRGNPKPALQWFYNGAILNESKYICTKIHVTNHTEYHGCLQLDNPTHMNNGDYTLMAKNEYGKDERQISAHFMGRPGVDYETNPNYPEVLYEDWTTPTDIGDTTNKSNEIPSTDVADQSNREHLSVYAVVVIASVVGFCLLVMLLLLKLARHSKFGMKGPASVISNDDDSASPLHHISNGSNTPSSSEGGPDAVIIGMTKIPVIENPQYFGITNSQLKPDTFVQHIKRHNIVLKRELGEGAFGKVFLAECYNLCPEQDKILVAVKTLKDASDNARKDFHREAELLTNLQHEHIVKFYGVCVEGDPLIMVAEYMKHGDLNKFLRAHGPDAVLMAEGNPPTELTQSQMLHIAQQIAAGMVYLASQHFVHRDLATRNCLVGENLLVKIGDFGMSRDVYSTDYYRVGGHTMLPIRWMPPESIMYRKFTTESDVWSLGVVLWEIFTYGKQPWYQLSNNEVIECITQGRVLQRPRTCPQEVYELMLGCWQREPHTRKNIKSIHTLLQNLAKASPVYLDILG
TrkA, sequence (Q3UFB7 34-799): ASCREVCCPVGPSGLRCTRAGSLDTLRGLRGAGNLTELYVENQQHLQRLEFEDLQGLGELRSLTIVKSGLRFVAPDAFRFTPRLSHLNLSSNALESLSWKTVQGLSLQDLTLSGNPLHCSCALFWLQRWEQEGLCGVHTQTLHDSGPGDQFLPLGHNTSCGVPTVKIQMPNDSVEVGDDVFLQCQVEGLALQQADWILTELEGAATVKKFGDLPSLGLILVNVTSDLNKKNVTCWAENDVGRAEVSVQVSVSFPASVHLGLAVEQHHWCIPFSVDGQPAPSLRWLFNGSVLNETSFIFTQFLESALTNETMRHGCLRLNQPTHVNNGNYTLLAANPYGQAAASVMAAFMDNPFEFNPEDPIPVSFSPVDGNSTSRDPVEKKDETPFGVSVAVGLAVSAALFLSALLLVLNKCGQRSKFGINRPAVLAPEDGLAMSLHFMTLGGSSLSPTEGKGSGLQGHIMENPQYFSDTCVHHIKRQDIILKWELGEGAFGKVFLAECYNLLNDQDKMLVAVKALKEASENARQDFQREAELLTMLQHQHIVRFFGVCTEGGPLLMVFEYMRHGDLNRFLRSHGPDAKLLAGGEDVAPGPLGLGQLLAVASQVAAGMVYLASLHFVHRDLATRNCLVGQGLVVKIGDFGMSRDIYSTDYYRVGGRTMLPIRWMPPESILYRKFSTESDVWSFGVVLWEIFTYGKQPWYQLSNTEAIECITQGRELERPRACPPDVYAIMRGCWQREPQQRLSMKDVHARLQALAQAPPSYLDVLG

Compound | TrkA activation (TrkA) | blockade of glutamate-provoked caspase-3 activation (caspase-3; TrkB −/− cortical neurons) | blockade of glutamate-provoked caspase-3 activation (caspase-3; wild-type cortical neurons) | blockade of BDNF-provoked TrkB phosphorylation (TrkB F616A) | blockade of deoxygedunin provoked TrkB phosphorylation (TrkB F616A) | blockade of BDNF-triggered Akt and Erk1/2 activation (Akt and Erk1/2) | TrkB activation (TrkB [1]) | further results
CC(C)(C)n1nc(Cc2cccc3ccccc23)c2c(N)ncnc21 [1NMPP1] | – | – | – | selectively blocked | selectively blocked | blocked BDNF-triggered Akt and Erk1/2 activation | – | immobility time, 1NMPP1-treated versus saline (mice; TrkB F616A knockin mice, no test drug): No significant difference; effect of 1NMPP1 pretreatment on deoxygedunin's protective effect (TrkB F616A knockin mice; F616A mice, KA): diminished deoxygedunin's protective effect; effect of 1NMPP1 pretreatment on KA-provoked apoptosis (TrkB F616A knockin mice; TrkB F616A mice): elevated KA-provoked apoptosis; effect on Akt and Erk1/2 activation by deoxygedunin (Akt and Erk1/2): diminished Akt and Erk1/2 activation
O=c1cc(-c2ccccc2)oc2c(O)c(O)ccc12 [7,8-dihydroxyflavone] | not TrkA | not TrkB −/− neurons | substantially blocked | – | – | – | selectively activated TrkB | –
COC(=O)[C@@]1(O)C[C@H]2O[C@]1(C)n1c3ccccc3c3c4c(c5c6ccccc6n2c5c31)C(=O)NC4 [K252a] | – | – | – | not K252a | not K252a | not K252a | – | blockade of deoxygedunin-provoked downstream Akt and MAPK signalings (Erk1/2 and Akt): blocked; blockade of deoxygedunin-triggered TrkB activation (TrkB [2]): substantially blocked
CC(=O)O[C@@H]1CC2C(C)(C)C(=O)CC[C@]2(C)C2CC[C@]3(C)C(=CC(=O)O[C@H]3c3ccoc3)[C@@]21C (some centres unmarked) [dihydrodeoxygedunin] | – | – | – | – | – | – | – | protective effects on hippocampal neurons under OGD (hippocampal neurons [3]): potent protective effects; protective effect (apoptosis inhibitory activity) (hippocampal neurons [4]): protective effect

Second part, led by results:

TrkA activation (TrkA) | blockade of glutamate-provoked caspase-3 activation (caspase-3; TrkB −/− cortical neurons) | blockade of glutamate-provoked caspase-3 activation (caspase-3; wild-type cortical neurons) | Compound | blockade of BDNF-provoked TrkB phosphorylation (TrkB F616A) | blockade of deoxygedunin provoked TrkB phosphorylation (TrkB F616A) | blockade of BDNF-triggered Akt and Erk1/2 activation (Akt and Erk1/2) | TrkB activation (TrkB [1]) | further results
activated both TrkA and TrkB | weakly suppressed caspase-3 activation | weakly suppressed caspase-3 activation | CN(C)CCC=C1c2ccccc2CCc2ccccc21 [amitriptyline] | – | – | – | activated both TrkA and TrkB | –
not imipramine | – | failed to block caspase-3 activation | CN(C)CCCN1c2ccccc2CCc2ccccc21 [imipramine, reference compound] | – | – | – | not imipramine | swimming immobility (mice; mice, subchronic treatment 5 days, imipramine 20 mg/kg, deoxygedunin 5 mg/kg): significantly decreased
